The structures appear in SMILES notation. Where two headings read alike, the source gives them in different places.

For one assay, the target named is SOS1 (Homo sapiens (Human), UniProt Q07889). In words: Ras-SOS interaction assay (HTRF), K-Ras G13D utilized. Format: binding. The following applies: K-Ras G13D. For orientation: In TR-FRET formats the signal depends on donor and acceptor labels being close together.
Assay [1] concerns NCI-H1975 (ATCC CRL-5908) cell line comprising an EGFR T790M L858R double mutation. As to the kind of experiment: EGFR-SOS cellular inhibition assay (CellTiter-Glo cell proliferation). The following applies: Homo sapiens. Format: cell-based. (In general: ATP-based viability assays read luminescence as a measure of living cells.)
Protocol: A CellTiter-Glo (CTG) luminescent based assay (Promega) is used to assess growth of the cells, as a measurement of the ability of the compounds herein to inhibit EGFR signaling in the cells. […] The day after plating, cells are treated with a dilution series (e.g., a 9 point 3-fold dilution series) of the compounds herein (e.g., approximately 125 μL final volume per well).
The mark [2] stands for this setting: 120 h, NCI-H1975 cell proliferation, approximately 5 days, read-out: H1975 IC50.
[3] abbreviates: read-out: IC50 value against SOS1.

Sequence of SOS1 (Q07889 564-1049): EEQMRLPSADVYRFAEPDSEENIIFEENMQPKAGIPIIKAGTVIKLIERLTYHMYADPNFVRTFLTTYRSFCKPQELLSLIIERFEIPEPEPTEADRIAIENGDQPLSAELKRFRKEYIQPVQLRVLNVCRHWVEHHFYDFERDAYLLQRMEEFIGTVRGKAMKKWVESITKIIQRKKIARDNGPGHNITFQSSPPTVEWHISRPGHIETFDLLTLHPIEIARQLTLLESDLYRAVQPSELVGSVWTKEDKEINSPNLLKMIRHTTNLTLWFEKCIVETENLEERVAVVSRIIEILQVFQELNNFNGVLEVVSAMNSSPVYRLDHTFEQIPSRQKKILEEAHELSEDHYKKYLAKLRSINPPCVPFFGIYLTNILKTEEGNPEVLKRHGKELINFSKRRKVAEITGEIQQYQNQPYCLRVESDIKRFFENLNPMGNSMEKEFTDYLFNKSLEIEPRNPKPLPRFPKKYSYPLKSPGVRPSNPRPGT

As usually defined, the IC50 is the midpoint of a concentration-inhibition curve. Turning to `CC(C)N1CCN(c2cc3c4ncnc3n(c2=O)CCCCCCCN2CCC(CC2)C(F)(F)c2cccc(c2)[C@@H](C)N4)CC1` [Compound 123, (4R)-2,2-difluoro-6^6-(4-isopropylpiperazin-1-yl)-4-methyl-6^7,6^8-dihydro-5-aza-6(4,8)-pyrido[2,3-d]pyrimidina-1(4,1)-piperidina-3(1,3)-benzenacyclotridecaphan-6^7-one], the IC50 at SOS1 (read-out: SOS1 IC50) was less than 100 nM; in assay [1] (setting [2]), less than 1000 nM.
Turning to `C[C@H]1Nc2ncnc3c2cc(C2(C#N)CCOCC2)c(=O)n3CCCCCCCN2CCC(CC2)C(F)(F)c2cccc1c2` [Compound 76, 4-((4R)-2,2-difluoro-4-methyl-6^7-oxo-6^7,6^8-dihydro-5-aza-6(4,8)-pyrido[2,3-d]pyrimidina-1(4,1)-piperidina-3(1,3)-benzenacyclotridecaphane-6^6-yl)tetrahydro-2H-pyran-4-carbonitrile], the IC50 was less than 100 nM at SOS1 (read-out: SOS1 IC50) and less than 1000 nM in assay [1] (setting [2]).
For the molecule `CC(C)N1CCN(c2cc3c4ncnc3n(c2=O)CCCOCCCCN2CCC(CC2)C(F)(F)c2cccc(c2)[C@@H](C)N4)CC1` [Compound 190, (4R)-2,2-difluoro-6^6-(4-isopropylpiperazin-1-yl)-4-methyl-6^7,6^8-dihydro-10-oxa-5-aza-6(4,8)-pyrido[2,3-d]pyrimidina-1(4,1)-piperidina-3(1,3)-benzenacyclotetradecaphan-6^7-one], the values for the IC50 (at SOS1 (read-out: SOS1 IC50); in assay [1] (setting [2])) were less than 100 nM and less than 1000 nM, respectively.
In the case of `C[C@H]1Nc2ncnc3c2cc(C2CCS(=O)(=O)CC2)c(=O)n3CCCCNC(=O)[C@H](C)N2CCC(CC2)C(F)(F)c2cccc1c2` [Compound 85, (4R,13S)-6^6-(1,1-dioxidotetrahydro-2H-thiopyran-4-yl)-2,2-difluoro-4,13-dimethyl-6^7,6^8-dihydro-5,11-diaza-6(4,8)-pyrido[2,3-d]pyrimidina-1(4,1)-piperidina-3(1,3)-benzenacyclotridecaphane-6^7,12-dione], the IC50 on SOS1 (read-out: SOS1 IC50) is less than 100 nM; in assay [1] (setting [2]), less than 1000 nM.
For `C[C@H]1Nc2ncnc3c2cc(C2CCS(=O)(=O)CC2)c(=O)n3CCCCCC(C)(O)CN2CCC(CC2)C(F)(F)c2cccc1c2` (stereo partly drawn) [Compound 110, (4R)-6^6-(1,1-dioxidotetrahydro-2H-thiopyran-4-yl)-2,2-difluoro-12-hydroxy-4,12-dimethyl-6^7,6^8-dihydro-5-aza-6(4,8)-pyrido[2,3-d]pyrimidina-1(4,1)-piperidina-3(1,3)-benzenacyclotridecaphan-6^7-one], the IC50 is less than 100 nM on SOS1 (read-out: SOS1 IC50) and less than 1000 nM in assay [1] (setting [2]).
Regarding `C[C@H]1Nc2ncnc3c2cc(C2CCS(=O)(=O)CC2)c(=O)n3CCCCn2cc(nn2)CN2CCC(CC2)C(F)(F)c2cccc1c2F` [Compound 108, (6R,Z)-8^6-(1,1-dioxidotetrahydro-2H-thiopyran-4-yl)-5^2,4,4-trifluoro-6-methyl-8^7,8^8-dihydro-11H-7-aza-8(4,8)-pyrido[2,3-d]pyrimidina-3(1,4)-piperidina-1(4,1)-triazola-5(1,3)-benzenacyclododecaphan-8^7-one], the IC50 on SOS1 (read-out: SOS1 IC50) is less than 100 nM; in assay [1] (setting [2]), less than 1000 nM.
Take `C[C@H]1Nc2ncnc3nc(c(C4(C#N)CC4)cc23)OCCCCCCN2CCC(CC2)C(F)(F)c2cccc1c2` [Compound 121, (R)-1-(2,2-difluoro-4-methyl-7-oxa-5-aza-6(4,7)-pyrido[2,3-d]pyrimidina-1(4,1)-piperidina-3(1,3)-benzenacyclotridecaphane-6^6-yl)cyclopropane-1-carbonitrile]: the figures for the IC50 (at SOS1 (read-out: SOS1 IC50); in assay [1] (setting [2])) were less than 100 nM and less than 1000 nM, respectively.
For `C[C@H]1Nc2ncnc3c2cc(C2(C#N)CC2)c(=O)n3CCCCCCN2CCC(CC2)C(F)(F)c2cccc1c2` [Compound 104, 1-((4R)-2,2-difluoro-4-methyl-6^7-oxo-6^7,6^8-dihydro-5-aza-6(4,8)-pyrido[2,3-d]pyrimidina-1(4,1)-piperidina-3(1,3)-benzenacyclododecaphane-6^6-yl)cyclopropane-1-carbonitrile], the IC50 at SOS1 (read-out: SOS1 IC50) was less than 100 nM; in assay [1] (setting [2]), less than 1000 nM.
For `C[C@H]1Nc2ncnc3c2cc(C2(C#N)CC2)c(=O)n3CC(=O)NCCCCN2CCC(CC2)C(F)(F)c2cccc1c2` [Compound 132, 1-((4R)-2,2-difluoro-4-methyl-6^7,8-dioxo-6^7,6^8-dihydro-5,9-diaza-6(4,8)-pyrido[2,3-d]pyrimidina-1(4,1)-piperidina-3(1,3)-benzenacyclotridecaphane-6^6-yl)cyclopropane-1-carbonitrile], the IC50 is less than 100 nM at SOS1 (read-out: SOS1 IC50) and less than 1000 nM in assay [1] (setting [2]).
Consider `C[C@H]1Nc2ncnc3c2cc(C2CCS(=O)(=O)CC2)c(=O)n3CCCCCCCN2CCC(CC2)C(F)(F)c2cccc1c2F` [Compound 125, (4R)-6^6-(1,1-dioxidotetrahydro-2H-thiopyran-4-yl)-3^2,2,2-trifluoro-4-methyl-6^7,6^8-dihydro-5-aza-6(4,8)-pyrido[2,3-d]pyrimidina-1(4,1)-piperidina-3(1,3)-benzenacyclotridecaphan-6^7-one], for which the IC50 was less than 100 nM on SOS1 (read-out: SOS1 IC50) and less than 1000 nM in assay [1] (setting [2]).
For the molecule `Cc1nc2c3cc(C4(C#N)CC4)c(=O)n(c3n1)CCCC/C=C\COCC(F)(F)c1cccc(c1F)[C@@H](C)N2` [Compound 105, 1-((3R,Z)-4^2,5,5-trifluoro-1^2,3-dimethyl-1^7-oxo-1^7,1^8-dihydro-7-oxa-2-aza-1(4,8)-pyrido[2,3-d]pyrimidina-4(1,3)-benzenacyclotetradecaphan-9-en-1^6-yl)cyclopropane-1-carbonitrile], the IC50 at SOS1 (read-out: SOS1 IC50) was less than 100 nM; in assay [1] (setting [2]), less than 1000 nM.
With `Cc1nc2c3cc(C4(C#N)CC4)c(=O)n(c3n1)CCCCCCCOCC(F)(F)c1cccc(c1F)[C@@H](C)N2` [Compound 44, 1-((3R)-4^2,5,5-trifluoro-1^2,3-dimethyl-1^7-oxo-1^7,1^8-dihydro-7-oxa-2-aza-1(4,8)-pyrido[2,3-d]pyrimidina-4(1,3)-benzenacyclotetradecaphane-1^6-yl)cyclopropane-1-carbonitrile], the IC50 at SOS1 (read-out: SOS1 IC50) lay in the range of 100 to 5000 nM; in assay [1] (setting [2]), 1000 to 10000 nM.
For the molecule `Cc1nc2c3cc(C4(C#N)CC4)c(=O)n(c3n1)CCCC/C=C\CN1CCC(CC1)C(F)(F)c1cccc(c1F)[C@@H](C)N2` [Compound 168, 1-((4R,Z)-3^2,2,2-trifluoro-6^2,4-dimethyl-6^7-oxo-6^7,6^8-dihydro-5-aza-6(4,8)-pyrido[2,3-d]pyrimidina-1(4,1)-piperidina-3(1,3)-benzenacyclotridecaphan-11-en-6^6-yl)cyclopropane-1-carbonitrile], the IC50 was less than 50 nM at SOS1 (setting [3]), less than 100 nM on SOS1 (read-out: SOS1 IC50) and 1000 to 10000 nM in assay [1] (setting [2]).
As to `C[C@H]1Nc2ncnc3c2cc(C2(C#N)CC2)c(=O)n3CCCn2cc(nn2)CN2CCC(CC2)C(F)(F)c2cccc1c2` [Compound 95, 1-((6R,Z)-4,4-difluoro-6-methyl-8^7-oxo-8^7,8^8-dihydro-11H-7-aza-8(4,8)-pyrido[2,3-d]pyrimidina-3(1,4)-piperidina-1(4,1)-triazola-5(1,3)-benzenacycloundecaphane-8^6-yl)cyclopropane-1-carbonitrile], the IC50 at SOS1 (read-out: SOS1 IC50) was less than 100 nM; in assay [1] (setting [2]), less than 1000 nM.
For `C[C@H]1Nc2ncnc3c2cc(C2(C#N)CCS(=O)(=O)CC2)c(=O)n3CCCCCCN2CC(CCC(F)(F)c3cccc1c3)C2` [Compound 213, 4-((3R)-5,5-difluoro-3-methyl-1^7-oxo-1^7,1^8-dihydro-2-aza-1(4,8)-pyrido[2,3-d]pyrimidina-8(3,1)-azetidina-4(1,3)-benzenacyclotetradecaphane-1^6-yl)tetrahydro-2H-thiopyran-4-carbonitrile 1,1-dioxide], the IC50 on SOS1 (setting [3]) is less than 50 nM; on SOS1 (read-out: SOS1 IC50) it was less than 100 nM; in assay [1] (setting [2]), less than 1000 nM; in assay [1] (NCI-H1975, EGFR T790M L858R double mutation, read-out: IC50 in inhibiting growth of NCI-H1975 cell line), less than 500 nM.
For the molecule `C[C@H]1Nc2ncnc3c2cc(C2(C#N)CCS(=O)(=O)CC2)c(=O)n3CCCOCCCN2CCC(CC2)CC(F)(F)c2cccc1c2` [Compound 189, 4-((3R)-5,5-difluoro-3-methyl-1^7-oxo-1^7,1^8-dihydro-11-oxa-2-aza-1(4,8)-pyrido[2,3-d]pyrimidina-7(4,1)-piperidina-4(1,3)-benzenacyclotetradecaphane-1^6-yl)tetrahydro-2H-thiopyran-4-carbonitrile 1,1-dioxide], the results for the 50% inhibitory concentration (IC50) (on SOS1 (read-out: SOS1 IC50); in assay [1] (setting [2])) were less than 100 nM and less than 1000 nM, respectively.
For `COc1nnc2c3cc(C4CCS(=O)(=O)CC4)c(nc13)OCCCCCCCN1CCC(CC1)C(F)(F)c1cccc(c1F)[C@@H](C)N2` [Compound 177, (R)-4-(3^2,2,2-trifluoro-6^8-methoxy-4-methyl-7-oxa-5-aza-6(5,2)-pyrido[2,3-d]pyridazina-1(4,1)-piperidina-3(1,3)-benzenacyclotetradecaphane-6^3-yl)tetrahydro-2H-thiopyran 1,1-dioxide], the IC50 was less than 100 nM at SOS1 (read-out: SOS1 IC50) and less than 1000 nM in assay [1] (setting [2]).
For `C[C@H]1Nc2ncnc3c2cc(N2CCN(C4COC4)CC2)c(=O)n3CCCCCCCN2CCC(CC2)C(F)(F)c2cccc1c2F` [Compound 179, (4R)-3^2,2,2-trifluoro-4-methyl-6^6-(4-(oxetan-3-yl)piperazin-1-yl)-6^7,6^8-dihydro-5-aza-6(4,8)-pyrido[2,3-d]pyrimidina-1(4,1)-piperidina-3(1,3)-benzenacyclo-tridecaphan-6^7-one], the values for the IC50 (at SOS1 (read-out: SOS1 IC50); in assay [1] (setting [2])) were less than 100 nM and less than 1000 nM, respectively.
Turning to `C[C@H]1Nc2ncnc3c2cc(C2(C#N)CC2)c(=O)n3CCCC/C=C/CN2CCC(CC2(C)C)C(F)(F)c2cccc1c2` (stereo partly drawn) [Compound 70, 1-((4R,E)-2,2-difluoro-1^2,1^2,4-trimethyl-6^7-oxo-6^7,6^8-dihydro-5-aza-6(4,8)-pyrido[2,3-d]pyrimidina-1(4,1)-piperidina-3(1,3)-benzenacyclotridecaphan-11-en-6^6-yl)cyclopropane-1-carbonitrile], the IC50 is less than 100 nM on SOS1 (read-out: SOS1 IC50) and less than 1000 nM in assay [1] (setting [2]).
